# US6150413A, “Triaromatic compounds and pharmaceutical/cosmetic compositions comprised thereof” (Centre International de Recherches Dermatologiques, priority 1997, dated 2000)
# What was measured:
# [1] = test system: RAR; assay: mouse-ear oedema induced by topical application of CD270 (test to identify RAR-antagonist molecules); assay type: in vivo; details: for % of inhibition of the agonist activity: mouse-ear oedema, topical, agonist CD270 0.01% w/v; for RAR-antagonist classification from the mouse-ear oedema table: results in words
# Source text: (§1) The compounds according to the invention show activity in the test of differentiation of mouse embryonic teratocarcinoma cells (F9) (Cancer Research 43, p. 5268, 1983) and/or in the test of inhibition of ornithine decarboxylase after induction with TPA in mice (Cancer Research 38, p. 793-801, 1978). These tests show the activities of these compounds in the fields of cell differentiation and proliferation respectively. In the cell (F9) differentiation test, it is possible to evaluate an agonist activity as an antagonist activity to retinoic acid receptors. […] These compounds are thus also active in a test which consists in identifying RAR-antagonist molecules, as described in French patent application No. 95/07302 filed on Jun. 19, 1995 by the Applicant. This test comprises the following steps: (i) a sufficient amount of an RAR-agonist molecule is applied topically to an area of the skin of a mammal, (ii) a molecule capable of showing RAR-antagonist activity is administered systemically or topically to this same mammal or to this same area of the mammal's skin, before, during or after step (i), and (iii) the response on the area of the mammal's skin thus treated is evaluated. Thus, the response to a topical application to a mammal's ear of an RAR-agonist molecule, which corresponds to an increase in the thickness of that ear, can be inhibited by the systemic or topical administration of an RAR-antagonist molecule.
# Results of a test to identify RAR-antagonist molecules, as described in French patent application No. 95/07302 filed on Jun. 19, 1995 by the Applicant.
# The test used is that of mouse-ear oedema induced by topical application of 2-(5,6,7,8-tetrahydro-5,5,8,8-tetramethyl-2-naphthyl)-6-benzo[b]-thiophenecarboxylic acid (CD270) at a concentration of 0.01% on a weight per unit volume basis.
# The response can be inhibited by the topical administration of a dose (expressed in % on a weight per unit volume basis) of compound X.
# [2] = test system: RAR; assay: differentiation of mouse embryonic teratocarcinoma cells (F9), inhibition of the activity of agonist CD2043 (RAR-antagonist identification); assay type: cell-based; details: for % of inhibition of the agonist activity: F9 cells, compound 10^-5 M, agonist CD2043 10^-8 M; for RAR-antagonist classification from the F9 table: results in words
# Source text: as §1
# Results of a test of differentiation of mouse embryonic teratocarcinoma cells (F9) in order to identify RAR-antagonist molecules, described in Cancer Research 43, p. 5268, 1983.
# In the test used, a compound is considered as being an RAR antagonist if it lowers the activity of the agonist (4-[(5,5,8,8-tetramethyl-5,6,7,8-tetrahydro-2-naphthylamino)methyl]benzoicacid, referred to as compound CD2043) on the morphology and secretion of the plasminogen activator by the F9 cells. In this test, the compounds are tested at 10^-5 M and the CD2043 is tested at 10^-8 M.
SMILES,"inflammation / thickness of the mouse's ear ([1]; topical CD270, 0.01% w/v, mouse ear)",% of inhibition of the agonist activity [2] [%],RAR-antagonist classification from the F9 table [2],% of inhibition of the agonist activity ([1]; dose 0.01% w/v) [%],RAR-antagonist classification from the mouse-ear oedema table [1],% of inhibition of the agonist activity ([1]; dose 0.1% w/v) [%]
"CC1(C)CCC(C)(C)c2cc(-c3cc4ccc(C(=O)O)cc4s3)ccc21 [CD270, 2-(5,6,7,8-tetrahydro-5,5,8,8-tetramethyl-2-naphthyl)-6-benzo[b]-thiophenecarboxylic acid, reference compound]",causes an inflammation which is characterized by an increase in the thickness of the mouse's ear,–,–,–,–,–
"O=C(O)c1ccc(C#C/C=C/c2ccccc2-c2ccccc2)cc1 [Example 1, 4-(4-Biphenyl-2-ylbut-3-en-(E)-1-ynyl)benzoic acid]",–,100,RAR-antagonist compounds,78,RAR-antagonist compounds,–
"Cc1ccc(-c2ccccc2/C=C/C#Cc2ccc(C(=O)O)cc2)cc1 [Example 2, 4-[4-(4'-Methylbiphenyl-2-yl)but-3-en-(E)-1-ynyl]benzoic acid]",–,94,RAR-antagonist compounds,85,RAR-antagonist compounds,–
"Cc1ccc(-c2cccc(F)c2/C=C/C#Cc2ccc(C(=O)O)cc2)cc1 [Example 11, 4-[4-(3-Fluoro-4'-methylbiphenyl-2-yl)but-3-en-(E)-1-ynyl]benzoic acid]",–,96,RAR-antagonist compounds,–,RAR-antagonist compounds,99
"Cc1ccc(-c2ccc(C)cc2/C=C/C#Cc2ccc(C(=O)O)cc2)cc1 [Example 12, 4-[4-(4,4'-Dimethylbiphenyl-2-yl)but-3-en-1-ynyl]benzoic acid]",–,87,RAR-antagonist compounds,45,RAR-antagonist compounds,–
"Cc1ccc(-c2c(C)cccc2/C=C/C#Cc2ccc(C(=O)O)cc2)cc1 [Example 14, 4-[4-(6,4'-Dimethylbiphenyl-2-yl)but-3-en-(E)-1-ynyl]benzoic acid]",–,95,–,–,–,93
"COCOc1ccc(-c2ccc(C)cc2)c(/C=C/C#Cc2ccc(C(=O)O)cc2)c1 [Example 15, 4-[4-(4-Methoxymethoxy-4'-methylbiphenyl-2-yl)but-3-en-(E)-1-ynyl]benzoic acid]",–,93,–,43,–,–
"COCOc1ccc(/C=C/C#Cc2ccc(C(=O)O)cc2)c(-c2ccc(C)cc2)c1 [Example 16, 4-[4-(5-Methoxymethoxy-4'-methylbiphenyl-2-yl)but-3-en-(E)-1-ynyl]benzoic acid]",–,92,–,34,–,–
"COCOc1cccc(/C=C/C#Cc2ccc(C(=O)O)cc2)c1-c1ccc(C)cc1 [Example 17, 4-[4-(6-Methoxymethoxy-4'-methylbiphenyl-2-yl)but-3-en-(E)-1-ynyl]benzoic acid]",–,98,–,–,–,94
"C/C(=C\C#Cc1ccc(C(=O)O)cc1)c1ccccc1-c1ccc(C)cc1 [Example 18, 4-[4-(4'-Methylbiphenyl-2-yl)pent-3-en-(E)-1-ynyl]benzoic acid]",–,69,–,–,–,41
"COCOc1ccc(-c2ccccc2/C=C/C#Cc2ccc(C(=O)O)cc2)cc1 [Example 28, 4-[4-(4'-Methoxymethoxybiphenyl-2-yl)but-3-en-(E)-1-ynyl]benzoic acid]",–,96,RAR-antagonist compounds,31,RAR-antagonist compounds,–
"COc1ccc(/C=C/C#Cc2ccc(C(=O)O)cc2)c(-c2ccc(C)cc2)c1 [Example 42, 4-[4-(4'-Methyl-5-methoxybiphenyl-2-yl)but-3-en-(E)-1-ynyl]benzoic acid]",–,91,–,26,–,–
"CCCOc1ccc(/C=C/C#Cc2ccc(C(=O)O)cc2)c(-c2ccc(C)cc2)c1 [Example 43, 4-[4-(4'-Methyl-5-propoxybiphenyl-2-yl)but-3-en-(E)-1-ynyl]benzoic acid]",–,84,–,24,–,–
"Cc1ccc(-c2c(O)cccc2/C=C/C#Cc2ccc(C(=O)O)cc2)cc1 [Example 44, 4-[4-(4'-Methyl-6-hydroxybiphenyl-2-yl)but-3-en-(E)-1-ynyl]benzoic acid]",–,97,–,–,–,54
"COc1cccc(/C=C/C#Cc2ccc(C(=O)O)cc2)c1-c1ccc(C)cc1 [Example 45, 4-[4-(4'-Methyl-6-methoxybiphenyl-2-yl)but-3-en-(E)-1-ynyl]benzoic acid]",–,95,–,–,–,99
"COCOc1cccc(-c2ccc(C)cc2)c1/C=C/C#Cc1ccc(C(=O)O)cc1 [Example 52, 4-[4-(3-Methoxymethoxy-4'-methylbiphenyl-2-yl)but-3-en-(E)-1-ynyl]benzoic acid]",–,97,RAR-antagonist compounds,–,RAR-antagonist compounds,97
